Earlier results on one substance are cited in US10561746B2, “Gel formulations for guiding radiotherapy” (DANMARKS TEKNISKE UNIVERSITET, priority 2013, dated 2020).

On to H-(FEFEFKFK)2-OH [FEK16], for which the “concentration at which self-assembled hydrogels form” value (in the presence of mM concentrations of NaCl, KCl, and CaCl2) was above 10000 µg/mL. For the setting “pure H2O”, the “solubility in pure H2O” value is recorded as “highly soluble”.
